Reference: ChEMBL document CHEMBL3792349, “Synthesis of novel diazaphosphinanes coumarin derivatives with promoted cytotoxic and anti-tyrosinase activities” (Bioorg Med Chem Lett, 2016)
Active and inactive are the calls of the source. The calls are words filed in the database; no cut-off is given here.

What was measured:
MCF7 = test: Cytotoxicity against human MCF7 cells assessed as inhibition of cell proliferation after 48 hrs by MTT assay; type: functional, cell-based
[1] = Cytotoxicity against human HCT116 cells assessed as inhibition of cell proliferation after 48 hrs by MTT assay; type: functional, cell-based, HCT-116
[2] = target: T1, Tyrosinase (Agaricus bisporus) (UniProt O42713); test: Inhibition of mushroom tyrosinase using L-tyrosine as substrate assessed as dopachrome formation at 100 uM measured for 10 mins by spectrophotometric method relative to control
T1 sequence (whole entry): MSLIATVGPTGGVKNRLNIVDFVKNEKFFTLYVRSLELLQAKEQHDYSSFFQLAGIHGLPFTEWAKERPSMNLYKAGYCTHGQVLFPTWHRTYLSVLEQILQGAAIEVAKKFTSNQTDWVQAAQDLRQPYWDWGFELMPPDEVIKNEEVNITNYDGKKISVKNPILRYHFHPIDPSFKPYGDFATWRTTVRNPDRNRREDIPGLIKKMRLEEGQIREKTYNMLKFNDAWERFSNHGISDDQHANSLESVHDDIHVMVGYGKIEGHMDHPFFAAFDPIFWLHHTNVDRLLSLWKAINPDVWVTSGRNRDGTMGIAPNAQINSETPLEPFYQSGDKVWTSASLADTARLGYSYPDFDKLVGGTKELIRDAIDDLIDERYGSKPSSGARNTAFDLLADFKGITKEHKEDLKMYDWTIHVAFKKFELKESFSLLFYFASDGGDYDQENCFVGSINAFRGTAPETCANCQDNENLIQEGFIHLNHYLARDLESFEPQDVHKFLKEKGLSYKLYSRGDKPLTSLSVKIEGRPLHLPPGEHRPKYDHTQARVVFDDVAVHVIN

In the case of COc1ccc(P2(=S)NC(=S)C3=C(N2)Oc2c(c(=S)oc4ccccc24)C3c2cccnc2)cc1 (stereo not given), the IC50 (MCF7; Homo sapiens, MCF7, 48 h) is reported as over 100 µM, the IC50 ([1]; Homo sapiens, HCT-116, 48 h) is reported as over 100 µM and the inhibition [2] is reported as “inactive”.

With COc1ccc(P2(=S)NC(=S)C3=C(N2)Oc2c(c(=S)oc4ccccc24)C3c2ccccn2)cc1 (stereo not given) the IC50 (MCF7; Homo sapiens, MCF7, 48 h) was over 100 µM, the IC50 ([1]; Homo sapiens, HCT-116, 48 h) was over 100 µM and the inhibition [2] was 97.4%.

With COc1ccc(C2C3=C(NP(=S)(c4ccc(OC)cc4)NC3=S)Oc3c2c(=S)oc2ccccc32)cc1 (single isomer, unassigned; diastereomer 1) [listing 1 of 2 here] the IC50 (MCF7; Homo sapiens, MCF7, 48 h) was over 100 µM and the IC50 ([1]; Homo sapiens, HCT-116, 48 h) was 49 µM.

Work on COc1ccc(P2(=S)NC(=S)C3=C(N2)Oc2c(c(=S)oc4ccccc24)C3c2ccc(OC)c(OC)c2)cc1 (single isomer, unassigned; diastereomer 1) [listing 1 of 2 here] yielded an IC50 (MCF7; Homo sapiens, MCF7, 48 h) of over 100 µM and an IC50 ([1]; Homo sapiens, HCT-116, 48 h) of over 100 µM.

With COc1ccc(P2(=S)NC(=S)C3=C(N2)Oc2c(c(=S)oc4ccccc24)C3c2ccc(Cl)cc2)cc1 (single isomer, unassigned; diastereomer 1) [listing 1 of 2 here] the IC50 (MCF7; Homo sapiens, MCF7, 48 h) was 32 µM and the IC50 ([1]; Homo sapiens, HCT-116, 48 h) was 32 µM.

In the case of CCCCOc1ccc(C2C3=C(NP(=S)(c4ccc(OC)cc4)NC3=S)Oc3c2c(=S)oc2ccccc32)cc1 (single isomer, unassigned; diastereomer 1) [listing 1 of 2 here], the IC50 (MCF7; mcf7) is reported as 37.2 µM and the IC50 ([1]; hct-116) is reported as 25.2 µM.

Work on COc1ccc(P2(=S)NC(=S)C3=C(N2)Oc2c(c(=S)oc4ccccc24)C3c2ccccc2)cc1 (single isomer, unassigned; diastereomer 1) [listing 1 of 2 here] yielded an IC50 (MCF7; Homo sapiens, MCF7, 48 h) of over 100 µM and an IC50 ([1]; Homo sapiens, HCT-116, 48 h) of 71 µM.

In the case of COc1ccc(P2(=S)NC(=S)C3=C(N2)Oc2c(c(=S)oc4ccccc24)C3c2ccc(C)cc2)cc1 (single isomer, unassigned; diastereomer 1) [listing 1 of 2 here], the IC50 (MCF7; mcf7) is reported as over 100 µM and the IC50 ([1]; Homo sapiens, HCT-116, 48 h) is reported as 48 µM.

CCCCOc1ccc(C2C3=C(NP(=S)(c4ccc(OC)cc4)NC3=S)Oc3c2c(=S)oc2ccccc32)cc1 (single isomer, unassigned; diastereomer 1) [listing 2 of 2 here] gave an inhibition [2] of 55%.

With COc1ccc(C2C3=C(NP(=S)(c4ccc(OC)cc4)NC3=S)Oc3c2c(=S)oc2ccccc32)cc1 (single isomer, unassigned; diastereomer 1) [listing 2 of 2 here] the inhibition [2] was “inactive”.

For COc1ccc(P2(=S)NC(=S)C3=C(N2)Oc2c(c(=S)oc4ccccc24)C3c2ccc(C)cc2)cc1 (single isomer, unassigned; diastereomer 1) [listing 2 of 2 here], the inhibition [2] was 58.5%.

COc1ccc(P2(=S)NC(=S)C3=C(N2)Oc2c(c(=S)oc4ccccc24)C3c2ccc(Cl)cc2)cc1 (single isomer, unassigned; diastereomer 1) [listing 2 of 2 here] showed an inhibition [2] of 80.7%.

With COc1ccc(P2(=S)NC(=S)C3=C(N2)Oc2c(c(=S)oc4ccccc24)C3c2ccc(OC)c(OC)c2)cc1 (single isomer, unassigned; diastereomer 1) [listing 2 of 2 here] the inhibition [2] was “inactive”.

With COc1ccc(P2(=S)NC(=S)C3=C(N2)Oc2c(c(=S)oc4ccccc24)C3c2ccccc2)cc1 (single isomer, unassigned; diastereomer 1) [listing 2 of 2 here] the inhibition [2] was “inactive”.

COc1ccc(C2C3=C(NP(=S)(c4ccc(OC)cc4)NC3=S)Oc3c2c(=S)oc2ccccc32)cc1 (single isomer, unassigned; diastereomer 2) [listing 1 of 2 here] showed an IC50 (MCF7; mcf7) of 99 µM and an IC50 ([1]; hct-116) of 31.6 µM.

In the case of COc1ccc(P2(=S)NC(=S)C3=C(N2)Oc2c(c(=S)oc4ccccc24)C3c2ccc(Cl)cc2)cc1 (single isomer, unassigned; diastereomer 2) [listing 1 of 2 here], the IC50 (MCF7; mcf7) is reported as 33 µM and the IC50 ([1]; hct-116) is reported as 30 µM.

For CCCCOc1ccc(C2C3=C(NP(=S)(c4ccc(OC)cc4)NC3=S)Oc3c2c(=S)oc2ccccc32)cc1 (single isomer, unassigned; diastereomer 2) [listing 1 of 2 here], the IC50 (MCF7; mcf7) was over 100 µM and the IC50 ([1]; hct-116) was 56 µM.

Work on COc1ccc(P2(=S)NC(=S)C3=C(N2)Oc2c(c(=S)oc4ccccc24)C3c2ccccc2)cc1 (single isomer, unassigned; diastereomer 2) [listing 1 of 2 here] yielded an IC50 ([1]; hct-116) of 68 µM.

Work on COc1ccc(P2(=S)NC(=S)C3=C(N2)Oc2c(c(=S)oc4ccccc24)C3c2ccc(C)cc2)cc1 (single isomer, unassigned; diastereomer 2) [listing 1 of 2 here] yielded an IC50 (MCF7; mcf7) of 40 µM and an IC50 ([1]; hct-116) of 37 µM.

With CCCCOc1ccc(C2C3=C(NP(=S)(c4ccc(OC)cc4)NC3=S)Oc3c2c(=S)oc2ccccc32)cc1 (single isomer, unassigned; diastereomer 2) [listing 2 of 2 here] the inhibition [2] was 88.7%.

COc1ccc(C2C3=C(NP(=S)(c4ccc(OC)cc4)NC3=S)Oc3c2c(=S)oc2ccccc32)cc1 (single isomer, unassigned; diastereomer 2) [listing 2 of 2 here] showed an inhibition [2] of 68.8%.

Compound COc1ccc(P2(=S)NC(=S)C3=C(N2)Oc2c(c(=S)oc4ccccc24)C3c2ccc(C)cc2)cc1 (single isomer, unassigned; diastereomer 2) [listing 2 of 2 here] has an inhibition [2] of 61.8%.

Work on COc1ccc(P2(=S)NC(=S)C3=C(N2)Oc2c(c(=S)oc4ccccc24)C3c2ccc(Cl)cc2)cc1 (single isomer, unassigned; diastereomer 2) [listing 2 of 2 here] yielded an inhibition [2] of 16.1%.

COc1ccc(P2(=S)NC(=S)C3=C(N2)Oc2c(c(=S)oc4ccccc24)C3c2ccc(OC)c(OC)c2)cc1 (single isomer, unassigned; diastereomer 2) showed an inhibition [2] of 56.8%.

For COc1ccc(P2(=S)NC(=S)C3=C(N2)Oc2c(c(=S)oc4ccccc24)C3c2ccccc2)cc1 (single isomer, unassigned; diastereomer 2) [listing 2 of 2 here], the inhibition [2] was “inactive”.

In the case of COc1cccc2c1C(=O)c1c(O)c3c(c(O)c1C2=O)C[C@@](O)(C(=O)CO)C[C@@H]3O[C@H]1C[C@H](N)[C@H](O)[C@H](C)O1 [DOXORUBICIN], the IC50 (MCF7; Homo sapiens, MCF7, 48 h) is reported as 0.38 µM.
